From patent publication US12024544B2, “CCN3 and CCN3 peptides and analogs thereof for therapeutic use” (Rosalind Franklin University of Medicine & Science, priority 2010, dated 2024)
Entries after “also recorded” stand apart in the source; their conditions may differ. Where a SMILES comes first, the peptide text is derived from it.

What was measured:
Assay type in all cases: cell-based
[1] = test system: collagen type I promoter; test: collagen type I promoter (COL 1a2 promoter-luciferase) assay in TGF-beta stimulated mesangial cells
Experimental: In a second assay, the ability of the peptide to block the stimulation of collagen type I promoter by TGF-beta was tested. Collagen type I upregulation is a characteristic feature of fibrosis and is often used as an end point determination. TGF-beta is a well-established pro-fibrotic factor or cytokine that mesangial cells and other cells in the fibrotic response respond to by upregulating collagen and other matrix molecule production and accumulation. Several new anti-fibrotic therapies are under development that target the activity of TGF-beta. For the assays used in connection with the present invention, collagen promoter activity was measured as a rapid and early indicator of collagen-related fibrotic activity. The cells in culture were either unstimulated or stimulated by TGF-beta, both in the presence and absence of the selected peptides. If the peptides have inhibitory activity, the promoter activity under TGF-beta stimulation would be reduced to some value approaching the control, non-TGF-beta treated cells. The collagen promoter assay is based on the transfection of mesangial cells with a COL 1a2 promoter linked to luciferase. Therefore, when the promoter is stimulated it can be measured as luciferase units (Riser et al, CCN3 is a negative regulator of CCN2 and a novel endogenous inhibitor of the fibrotic pathway in an in vitro model of renal disease, American J Pathology, 174, 5, 2009). The level of collagen promoter activation (in arbitrary units), is based on a transfection efficiency control (CMV promoter activation).

[2] = test system: human chronic myelogenous leukemia cells (K562); conditions: 10 nM
Experimental: Another potential use of the methods described in the invention is for the treatment of cancers. […] CCNp generated to mimic the effects of the function of CCN3 to prevent, reduce, stop or reverse progression of fibrosis/scarring may also serve to limit cancer growth. […] In untreated cells (Control) and those pre-incubated with quantities (approximately 10 nM) of a commercial recombinant CCN3 (rCCN3c), or full length CCN3 made in our laboratory, represented by several preparations rCCN3 8 (SEQ ID NO: 44), rCCN3 9 (SEQ ID NO: 44), rCCN3 10 (SEQ ID NO: 44), rCCN3 11 (SEQ ID NO: 44), or the peptides CCN p37 or CCN p38 were allowed to grow, then proliferation measured by the CellTiter-Glo® Luminescent Cell Viability Assay Control untreated cells, or cells (McCallum, L et al, CCN3: a key growth regulator in Chronic Myeloid Leukaemia, J Cell Commun Signal. 2009 June; 3(2): 115-124.). The latter is a homogeneous method of determining the number of viable cells in culture based on quantitation of the ATP present, an indicator of metabolically active cells. […] In comparison, CCNp37 produces 15-20% inhibition and CCNp38 approximately 40% inhibition of cell growth. Thus the activity was greater than the full-length CCN3.

[3] = test system: MMP-1; test: MMP-1 production by human skin fibroblasts; conditions: for reduction in PDGF stimulated MMP-1 production: 100 nM, FIG. 27
Description: (§1) To test this we used a cell culture model of skin healing/scarring, which employed the use of primary human skin fibroblasts derived from foreskins collected post circumcision. These have been used extensively in the past to grown in culture and treated with agents that are known to drive wound healing and or scarring. We were also interested in a rare form of skin fibrosis/scarring that can lead to systemic disease and death known as nephrogenic systemic fibrosis (NSF). NSF is a complication of NMR diagnostics in renal impaired patients, where gadolinium (GAD), a heavy metal, is used as a contrast agent, but in some cases appears to deposit in skin. Although the mechanism for development of skin fibrosis and subsequent systemic disease is not yet completely understood, we have developed a model that has allowed elucidation of the probable pathway to skin fibrosis (Bhagavathula, N., M. K. Dame, M. DaSilva, W. Jenkins, M. N. Aslam, P. Perone and J. Varani (2010)). “Fibroblast response to gadolinium: role for platelet-derived growth factor receptor.” Invest Radiol 45(12): 769-777). This disease is characterized as a hyperproliferative disease, and in our model it was shown that PDGF produced by resident skin fibroblasts are stimulated by GAD to increase their production of PDGF which acts to induce proliferation and the increased production of MMPs, regulators of ECM breakdown and thus turnover, including the major MMP, MMP-1. At the same time tissue inhibitors of MMPs (TIMPs) are also affected by exposure to GAD. […] It appears that local fibroblasts then respond to this increased TGF-beta by increasing their production of ECM, including predominantly collagen type 1.
(§2) We examined the role of CCN3 and CCNp in fibroproliferative/fibrotic responses in human dermal fibroblasts exposed to Omniscan, one of the gadolinium-based contrast agents associated with development of nephrogenic systemic fibrosis. These studies were carried out as we have previously described (Riser, B. L., N. Bhagavathula, P. Perone, K. Garchow, Y. Xu, G. J. Fisher, F. Najmabadi, D. Attili and J. Varani (2012)). “Gadolinium-induced fibrosis is counter-regulated by CCN3 in human dermal fibroblasts: a model for potential treatment of nephrogenic systemic fibrosis.” J Cell Commun Signal 6(2): 97-105.). In our studies, human dermal fibroblasts were exposed to Omniscan; or to PDGF and TGF-β1 as controls. Cellular proliferation was assessed along with MMP-1 (by ELISA and gelatin zymography), TIMP-1 (by ELISA) and COL1 (by ELISA) in the absence and presence of CCN3 and CCNp. CCN3 and CCNp38 was added to cells at 10 nM concentration and at the same time as PDGF. In parallel, CCN3 production was assessed in control and Omniscan-treated cells. In most case the results shown (each bar) are the mean of 3-5 separate experiments, using fibroblasts from different donors. CCN3 was produced in our laboratory from the human embryonic kidney cell line (HEK-293) transfected with the complete human CCN3 gene, and producing an approximate 55 kDa, full-length CCN3 product. A second source of CCN3 was obtained from Pepro Tech Corporation (Rocky Hill, NJ) and is produced in a prokaryote cell line.
(§3) Next we created and tested for efficacy, additional CCNp including those with the cysteines intact (native sequence) from CCNp37 and CCNp38 and those that were modified by either shortening the peptide by 1 or 2 amino acids or lengthening by one amino acid. These agents were added to human skin fibroblasts in increasing concentrations from 1 nM to 100 nM and compared to the equal concentration of CCN3 (SEQ. ID. NO: 67). They were added just prior to the addition of either TGF-beta or PDGF, depending on the experiment.

[4] = test system: TIMP-1; test: TIMP-1 production by human skin fibroblasts
Description: as §1, §2
Next we created and tested for efficacy, additional CCNp including those with the cysteines intact (native sequence) from CCNp37 and CCNp38 and those that were modified by either shortening the peptide by 1 or 2 amino acids or lengthening by one amino acid. […]

[5] = test system: pro-collagen type 1; test: pro-collagen type 1 production by human skin fibroblasts
Description: To test this we used a cell culture model of skin healing/scarring, which employed the use of primary human skin fibroblasts derived from foreskins collected post circumcision. These have been used extensively in the past to grown in culture and treated with agents that are known to drive wound healing and or scarring. We were also interested in a rare form of skin fibrosis/scarring that can lead to systemic disease and death known as nephrogenic systemic fibrosis (NSF). NSF is a complication of NMR diagnostics in renal impaired patients, where gadolinium (GAD), a heavy metal, is used as a contrast agent, but in some cases appears to deposit in skin. Although the mechanism for development of skin fibrosis and subsequent systemic disease is not yet completely understood, we have developed a model that has allowed elucidation of the probable pathway to skin fibrosis (Bhagavathula, N., M. K. Dame, M. DaSilva, W. Jenkins, M. N. Aslam, P. Perone and J. Varani (2010)). “Fibroblast response to gadolinium: role for platelet-derived growth factor receptor.” Invest Radiol 45(12): 769-777). This disease is characterized as a hyperproliferative disease, and in our model it was shown that PDGF produced by resident skin fibroblasts are stimulated by GAD to increase their production of PDGF which acts to induce proliferation and the increased production of MMPs, regulators of ECM breakdown and thus turnover, including the major MMP, MMP-1. At the same time tissue inhibitors of MMPs (TIMPs) are also affected by exposure to GAD. […]
We examined the role of CCN3 and CCNp in fibroproliferative/fibrotic responses in human dermal fibroblasts exposed to Omniscan, one of the gadolinium-based contrast agents associated with development of nephrogenic systemic fibrosis. […] Cellular proliferation was assessed along with MMP-1 (by ELISA and gelatin zymography), TIMP-1 (by ELISA) and COL1 (by ELISA) in the absence and presence of CCN3 and CCNp. […] In parallel, CCN3 production was assessed in control and Omniscan-treated cells. […]

[6] = test system: human skin fibroblasts; test: human skin fibroblast proliferation
Description: as §1, §2, §3

With `CC(C)[C@H](NC(=O)CNC(=O)[C@H](CO)NC(=O)[C@@H](N)Cc1ccccc1)C(=O)N[C@@H](CO)C(=O)N[C@@H](CO)C(=O)N[C@@H](CC(=O)O)C(=O)NCC(=O)N[C@@H](CCCNC(=N)N)C(=O)N[C@@H](CO)C(=O)N[C@@H](CO)C(=O)N[C@H](C(=O)N1CCC[C@H]1C(=O)N[C@@H](Cc1c[nH]cn1)C(=O)O)[C@@H](C)O` [CCNp37] (H-FSGVSSDGRSSTPH-OH) the “inhibition of TGF-β-stimulated collagen promoter activity” value ([1]; added 24-hours prior to TGF-β) was “able to produce some activity”, the “inhibition of TGF-β-stimulated collagen promoter activity” value ([1]; added 24-hours prior to TGF-β, listed as Peptide 37) was “also present (although to a lower level)” and the “inhibition of TGF-β-stimulated collagen promoter activity” value ([1]; added just prior to TGF-β) was “most effective”. For the same compound, the “inhibition of TGF-β-stimulated collagen promoter activity” value ([1]; added just prior to TGF-β, listed as Peptide 37) was “ability to totally block TGF-β-stimulated collagen promoter activity”, the “inhibition of TGF-β-stimulated collagen promoter activity” value ([1]; peptide screen, FIG. 8) was “reduce collagen promoter stimulation by TGF-β; also recorded: inhibition of TGF-beta stimulated collagen promoter activity; also recorded: more potent than CCNp38” and the “reduction in growth and/or viability (inhibition of cell growth)” value [2] was 15-20%.
With `CC[C@H](C)[C@H](NC(=O)CNC(=O)[C@@H](NC(=O)[C@H](CCC(N)=O)NC(=O)[C@H](CC(N)=O)NC(=O)[C@H](CC(N)=O)NC(=O)[C@@H]1CCCN1C(=O)[C@H](CC(=O)O)NC(=O)[C@H](C)NC(=O)[C@H](CO)NC(=O)[C@H](CCCNC(=N)N)NC(=O)[C@H](CC(=O)O)NC(=O)[C@@H](N)CO)[C@@H](C)O)C(=O)N[C@@H](CO)C(=O)O` [CCNp38] (H-SDRSADPNNQTGIS-OH) the “inhibition of TGF-β-stimulated collagen promoter activity” value ([1]; 500 ng/mL) was “able to inhibit collagen promoter activity”, the “inhibition of TGF-β-stimulated collagen promoter activity” value ([1]; peptide screen, FIG. 8) was “reduce collagen promoter stimulation by TGF-β” and the “reduction in growth and/or viability (inhibition of cell growth)” value [2] was “approximately 40%”.
For “CCNp37-15: Human or mouse analog with native cysteines replaced with serines and without PH on C-terminal end, SEQ. ID. No. 55 (FSGVSSDGRSST)”, the “block of PDGF stimulated MMP-1 production, comparison of modifications” value ([3]; 1 nM to 100 nM, FIGS. 25-27) was “less effective”.
With “CCNp38-3: Human analog CCNp38 with native cysteines replaced with serines, SEQ. ID. No. 56 (SDRSADPSNQTGIS)” the “block of PDGF-induced increase in TIMP-1 production” value ([4]; PDGF, 10 nM, FIG. 19) was “neither CCNp38-3 (Seq. ID. No. 56) nor CCN3 (SEQ. ID. No. 67) is able to block or reduce the increase in TIMP-1 production”, the “effect on TIMP-1 production with TGF-beta” value ([4]; TGF-beta (fails to stimulate), FIG. 20) was “neither CCNp38-3 nor CCN3 have an effect; also recorded: neither CCNp38-3 or CCN3 have an effect” and the “reduction of TGF-beta-stimulated pro-collagen type 1 production” value ([5]; 1-100 nM, FIGS. 31-33) was “as effective as CCN3”. The “block of TGF-beta-induced increase in pro-collagen production” value ([5]; TGF-beta, 10 nM, FIG. 21) was “completely block the increase”, the “block of PDGF-stimulated fibroblast proliferation” value ([6]; PDGF, 10 nM, FIG. 15) was “equally well; also recorded: this stimulation is blocked” and the “effect on baseline cell growth” value ([6]; TGF-beta (does not stimulate proliferation), FIG. 16) was “neither CCN3 (SEQ. ID. No. 67) nor CCNp38-3 (Seq. ID. No. 56) has an effect on baseline cell growth”. For the same compound, the “reduction in PDGF stimulated MMP-1 production” value [3] was “about 60%”, the “block of PDGF-induced increase in MMP-1 activity” value ([3]; PDGF, 10 nM, FIG. 17) was “works better than CCN3 protein; also recorded: works as well or better than CCN3 protein” and the “effect on MMP-1 with TGF-beta” value ([3]; TGF-beta (no stimulating effect), FIG. 18) was “no effect”.
In the case of “CCNp38-4: Human native CCNp38, SEQ. ID. No. 50 (CDRSADPSNQTGIC; listed as Homo sapiens)”, the “inhibition of PDGF-stimulated proliferation, comparison of modifications” value ([6]; 1 nM to 100 nM, FIGS. 22-24) is reported as “inhibited proliferation stimulated by PDGF, but was not as effective as the substituted form” and the “reduction in PDGF stimulated MMP-1 production” value [3] is reported as “about 60%”.
